Data set [1] deals with T1, ATP-binding cassette sub-family C member 2 (Rattus norvegicus, UniProt Q63120). The data set is described as follows: TP_TRANSPORTER: biliary excretion in SD rat. Format: functional, organism-based, Sprague-Dawley, Bile. As to conditions: in vivo.
The target of data set [2] is T1, ATP-binding cassette sub-family C member 2. The data set is described as follows: TP_TRANSPORTER: biliary excretion in EHBR rat. Format: functional, organism-based, Bile. As to conditions: in vivo.

T1 sequence (Q63120 whole entry): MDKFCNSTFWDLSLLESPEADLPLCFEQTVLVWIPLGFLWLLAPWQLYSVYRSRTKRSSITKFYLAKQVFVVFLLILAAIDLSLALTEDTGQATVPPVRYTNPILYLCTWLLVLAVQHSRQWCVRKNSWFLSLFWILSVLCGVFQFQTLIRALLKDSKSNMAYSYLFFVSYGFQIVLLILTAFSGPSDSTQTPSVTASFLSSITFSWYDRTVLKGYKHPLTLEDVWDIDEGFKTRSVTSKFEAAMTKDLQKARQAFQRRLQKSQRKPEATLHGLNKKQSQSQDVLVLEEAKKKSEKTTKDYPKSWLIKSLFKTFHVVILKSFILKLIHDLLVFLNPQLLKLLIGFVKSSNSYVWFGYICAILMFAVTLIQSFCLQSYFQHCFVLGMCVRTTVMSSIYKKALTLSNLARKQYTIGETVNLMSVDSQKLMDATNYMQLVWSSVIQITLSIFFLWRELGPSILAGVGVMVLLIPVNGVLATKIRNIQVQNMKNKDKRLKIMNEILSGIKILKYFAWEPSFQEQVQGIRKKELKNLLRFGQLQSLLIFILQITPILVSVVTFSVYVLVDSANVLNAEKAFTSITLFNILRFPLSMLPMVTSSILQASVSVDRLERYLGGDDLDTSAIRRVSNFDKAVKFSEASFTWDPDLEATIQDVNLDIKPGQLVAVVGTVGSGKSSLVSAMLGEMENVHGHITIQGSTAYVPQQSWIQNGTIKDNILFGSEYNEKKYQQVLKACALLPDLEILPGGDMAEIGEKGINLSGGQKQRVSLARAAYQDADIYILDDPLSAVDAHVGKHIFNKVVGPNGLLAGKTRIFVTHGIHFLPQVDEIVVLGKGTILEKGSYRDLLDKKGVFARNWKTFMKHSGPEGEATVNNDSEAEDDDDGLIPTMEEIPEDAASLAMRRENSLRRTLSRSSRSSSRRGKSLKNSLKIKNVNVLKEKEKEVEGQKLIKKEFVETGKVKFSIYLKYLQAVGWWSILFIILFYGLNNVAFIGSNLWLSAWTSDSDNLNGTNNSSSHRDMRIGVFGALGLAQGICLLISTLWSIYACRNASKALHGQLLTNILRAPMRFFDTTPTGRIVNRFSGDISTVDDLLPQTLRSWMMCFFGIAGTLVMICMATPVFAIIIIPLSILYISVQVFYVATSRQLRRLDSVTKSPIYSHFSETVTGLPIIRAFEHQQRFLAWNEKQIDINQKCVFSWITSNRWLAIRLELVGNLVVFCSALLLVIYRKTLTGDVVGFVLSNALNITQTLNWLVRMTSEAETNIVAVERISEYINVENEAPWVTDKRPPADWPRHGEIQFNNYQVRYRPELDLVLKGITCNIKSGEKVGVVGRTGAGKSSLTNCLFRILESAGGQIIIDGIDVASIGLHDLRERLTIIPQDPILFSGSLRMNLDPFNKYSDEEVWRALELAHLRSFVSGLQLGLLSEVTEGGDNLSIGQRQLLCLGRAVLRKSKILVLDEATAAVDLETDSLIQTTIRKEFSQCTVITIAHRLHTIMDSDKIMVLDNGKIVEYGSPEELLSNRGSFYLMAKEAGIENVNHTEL

As to `O=C1CC(c2ccc(O[C@@H]3O[C@H](C(=O)O)[C@@H](O)[C@H](O)[C@H]3O)cc2)Oc2cc(O)ccc21` (some centres not stated) [LIQUIRTIGENIN GLUCURONIDE], the Activity entry in data set [1] and in data set [2] was “substrate [+]” in each case.

The values above are taken from ChEMBL document CHEMBL2074518, “Multiple systems for the biliary excretion of organic anions in rats: liquiritigenin conjugates as model compounds” (J Pharmacol Exp Ther, 1994).
